Assays:
Type in all cases: functional
Cucumis sativus [1] = experiment: Phytotoxic activity against Cucumis sativus (cucumber) assessed as weight of aerial parts at 5.0 x 10^-4 mol/l measured 15 days after seed sowing under greenhouse trials (reference value: 47.0 mg)
Sorghum bicolor [2] = experiment: Phytotoxic activity against Sorghum bicolor assessed as weight of roots at 5.0 x 10^-4 mol/l measured 15 days after seed sowing under greenhouse trials (reference value: 14.0 mg)
Sorghum bicolor [3] = experiment: Phytotoxic activity against Sorghum bicolor assessed as root growth inhibition at 5.0 x 10^-4 mol/l measured 15 days after seed sowing under greenhouse trials (reference value: 0.0%); conditions: 360 h
Sorghum bicolor [4] = experiment: Phytotoxic activity against Sorghum bicolor assessed as aerial part growth inhibition at 5.0 x 10^-4 mol/l measured 15 days after seed sowing under greenhouse trials (reference value: 0.0%); conditions: 360 h
Sorghum bicolor [5] = experiment: Phytotoxic activity against Sorghum bicolor assessed as weight of aerial parts at 5.0 x 10^-4 mol/l measured 15 days after seed sowing under greenhouse trials (reference value: 19.0 mg)
Cucumis sativus [6] = experiment: Phytotoxic activity against Cucumis sativus (cucumber) seedlings assessed as germination at 5x10'-4 mol/l at 28 +/-1 degC after 48 hr by acid-washed sand based radicle elongation assay (reference value: 100%)
Cucumis sativus [7] = experiment: Phytotoxic activity against Cucumis sativus (cucumber) seedlings assessed as inhibition of radicle growth at 5x10'-4 mol/l at 28 +/-1 degC after 48 hr by acid-washed sand based radicle elongation assay (reference value: 0.0%)
Cucumis sativus [8] = experiment: Phytotoxic activity against Cucumis sativus (cucumber) seedlings assessed as radicle length at 5x10'-4 mol/l at 28 +/-1 degC after 48 hr by acid-washed sand based radicle elongation assay (reference value: 4.8 cm)
Sorghum bicolor [9] = experiment: Phytotoxic activity against Sorghum bicolor seedlings assessed as germination at 5x10'-4 mol/l at 28 +/-1 degC after 48 hr by acid-washed sand based radicle elongation assay (reference value: 100%)
Sorghum bicolor [10] = experiment: Phytotoxic activity against Sorghum bicolor seedlings assessed as inhibition of radicle growth at 5x10'-4 mol/l at 28 +/-1 degC after 48 hr by acid-washed sand based radicle elongation assay (reference value: 0.0%)
Sorghum bicolor [11] = experiment: Phytotoxic activity against Sorghum bicolor seedlings assessed as radicle length at 5x10'-4 mol/l at 28 +/-1 degC after 48 hr by acid-washed sand based radicle elongation assay (reference value: 5.1 cm)
Urochloa decumbens [12] = experiment: Phytotoxic activity against Urochloa decumbens assessed as root growth inhibition at 5.0 x 10^-4 mol/l measured 21 days after seed sowing under greenhouse trials (reference value: 0.0%); conditions: 504 h
Urochloa decumbens [13] = experiment: Phytotoxic activity against Urochloa decumbens assessed as weight of root at 5.0 x 10^-4 mol/l measured 21 days after seed sowing under greenhouse trials (reference value: 21.2 mg)
Urochloa decumbens [14] = experiment: Phytotoxic activity against Urochloa decumbens assessed as aerial part growth inhibition at 5.0 x 10^-4 mol/l measured 21 days after seed sowing under greenhouse trials (reference value: 0.0%); conditions: 504 h
Urochloa decumbens [15] = experiment: Phytotoxic activity against Urochloa decumbens assessed as weight of aerial parts at 5.0 x 10^-4 mol/l measured 21 days after seed sowing under greenhouse trials (reference value: 22.0 mg)
Ipomoea grandifolia [16] = experiment: Phytotoxic activity against Ipomoea grandifolia assessed as root growth inhibition at 5.0 x 10^-4 mol/l measured 21 days after seed sowing under greenhouse trials (reference value: 0.0%); conditions: 504 h
Ipomoea grandifolia [17] = experiment: Phytotoxic activity against Ipomoea grandifolia assessed as weight of root at 5.0 x 10^-4 mol/l measured 21 days after seed sowing under greenhouse trials (reference value: 18.4 mg)
Ipomoea grandifolia [18] = experiment: Phytotoxic activity against Ipomoea grandifolia assessed as aerial part growth inhibition at 5.0 x 10^-4 mol/l measured 21 days after seed sowing under greenhouse trials (reference value: 0.0%); conditions: 504 h
Ipomoea grandifolia [19] = experiment: Phytotoxic activity against Ipomoea grandifolia assessed as weight of aerial parts at 5.0 x 10^-4 mol/l measured 21 days after seed sowing under greenhouse trials (reference value: 17.8 mg)
Cucumis sativus [20] = experiment: Phytotoxic activity against Cucumis sativus (cucumber) assessed as root growth inhibition at 5.0 x 10^-4 mol/l measured 15 days after seed sowing under greenhouse trials (reference value: 0.0%); conditions: 360 h
Cucumis sativus [21] = experiment: Phytotoxic activity against Cucumis sativus (cucumber) assessed as weight of roots at 5.0 x 10^-4 mol/l measured 15 days after seed sowing under greenhouse trials (reference value: 31.0 mg)
Cucumis sativus [22] = experiment: Phytotoxic activity against Cucumis sativus (cucumber) assessed as aerial part growth inhibition at 5.0 x 10^-4 mol/l measured 15 days after seed sowing under greenhouse trials (reference value: 0.0%); conditions: 360 h

| SMILES | Activity (Cucumis sativus [1]) [mg] | Activity (Sorghum bicolor [2]) [mg] | inhibition at 500 µM (Sorghum bicolor [3]) [%] | inhibition at 500 µM (Sorghum bicolor [4]) [%] | Activity (Sorghum bicolor [5]) [mg] | germination % at 500 µM (Cucumis sativus [6]) [%] | inhibition at 500 µM (Cucumis sativus [7]) [%] | Activity (Cucumis sativus [8]) [cm] | germination % at 500 µM (Sorghum bicolor [9]) [%] | inhibition at 500 µM (Sorghum bicolor [10]) [%] | Activity (Sorghum bicolor [11]) [cm] | inhibition at 500 µM (Cucumis sativus [20]) [%] | Activity (Cucumis sativus [21]) [mg] | inhibition at 500 µM (Cucumis sativus [22]) [%] | further results |
| --- | --- | --- | --- | --- | --- | --- | --- | --- | --- | --- | --- | --- | --- | --- | --- |
| CC(=O)[C@@]12C=C[C@H](O1)[C@H]1CCCC[C@H]2C1=O | 20 | 10.7 | 23.2 | 6 | 17.8 | 86 | 82.1 | 0.9 | 96 | 88.5 | 0.6 | 84.1 | 4.9 | 57.4 | inhibition at 500 µM (Urochloa decumbens [12]): 78.4%; Activity (Urochloa decumbens [13]): 4.5 mg; inhibition at 500 µM (Urochloa decumbens [14]): 66.5%; Activity (Urochloa decumbens [15]): 7.4 mg; inhibition at 500 µM (Ipomoea grandifolia [16]): 46.2%; Activity (Ipomoea grandifolia [17]): 8.6 mg; inhibition at 500 µM (Ipomoea grandifolia [18]): 39.4%; Activity (Ipomoea grandifolia [19]): 10.9 mg |
| CCC1C(=O)C(CC)C23CC(C)CCC24OOC(C)(O4)C1O3 (mixture of isomers) | 30.1 | 13.1 | 6.5 | 39.6 | 11.5 | 96 | 55.6 | 2.1 | 100 | 55.1 | 2.3 | 6.5 | 29 | 36 |  |
| CC12OC(C3OOC1O3)C1CCCCC2C1=O (mixture of isomers) | 17 | 12.7 | 11.8 | 20 | 15.4 | 70 | 52 | 2.3 | 96 | 71.5 | 1.5 | 65.9 | 10.6 | 63.9 |  |
| CC12OOC(O1)C1OC2(C)C2CCCCC1C2=O (mixture of isomers) | 32.9 | 9.2 | 34.6 | 41.8 | 11.1 | 100 | 84.2 | 0.8 | 100 | 80.2 | 1 | 57.4 | 13.2 | 29.9 |  |
| C[C@@H]1CC[C@H]2[C@@H](C)C(=O)O[C@@H]3O[C@@]4(C)CC[C@@H]1[C@]32OO4 [ARTEMISININ] |  |  |  |  |  |  |  |  |  |  |  |  |  |  | inhibition at 500 µM (Urochloa decumbens [12]): 95%; Activity (Urochloa decumbens [13]): 3.1 mg; inhibition at 500 µM (Urochloa decumbens [14]): 93.6%; Activity (Urochloa decumbens [15]): 2.9 mg; inhibition at 500 µM (Ipomoea grandifolia [16]): 95%; Activity (Ipomoea grandifolia [17]): 0.7 mg; inhibition at 500 µM (Ipomoea grandifolia [18]): 93.6%; Activity (Ipomoea grandifolia [19]): 1.2 mg |
| CC[C@@]12C=C[C@H](O1)[C@H]1CCCC[C@H]2C1=O | 14.5 | 7.7 | 49 | 48.8 | 9.7 | 100 | 73.2 | 1.3 | 100 | 64.2 | 1.8 | 49.2 | 15.8 | 69.2 |  |
| CCC12OC(C3OOC1O3)C1CCCCC2C1=O (mixture of isomers) | 24.4 | 10.2 | 27.1 | 45.4 | 10.3 | 96 | 57.2 | 2.1 | 100 | 52.5 | 2.4 | 75.2 | 7.7 | 48 | inhibition at 500 µM (Urochloa decumbens [12]): 77.9%; Activity (Urochloa decumbens [13]): 4.6 mg; inhibition at 500 µM (Urochloa decumbens [14]): 74.4%; Activity (Urochloa decumbens [15]): 5.7 mg; inhibition at 500 µM (Ipomoea grandifolia [16]): 43%; Activity (Ipomoea grandifolia [17]): 9.1 mg; inhibition at 500 µM (Ipomoea grandifolia [18]): 47.7%; Activity (Ipomoea grandifolia [19]): 9.4 mg |
| O=C1[C@@H]2CCCC[C@@H]1[C@@H]1C=C[C@@H]2O1 | 32.7 | 13.1 | 6.2 | 4.5 | 18.1 | 90 | 82.2 | 0.9 | 93 | 62 | 1.9 | 47.3 | 16.5 | 30.4 |  |
| C[C@@]12C=C[C@H](O1)[C@H]1CCCC[C@H]2C1=O | 26 | 9.7 | 30.7 | 42.6 | 10.9 | 95 | 74.7 | 1.2 | 99 | 58.9 | 2.1 | 43.1 | 17.6 | 44.6 |  |
| CC1CCC23OOC(C)(O2)C2OC3(C1)C(C)C(=O)C2C (mixture of isomers) | 29.7 | 12.7 | 9.1 | 6.8 | 17.7 | 93 | 39.9 | 2.9 | 96 | 72.1 | 1.4 | 50.8 | 15.3 | 36.9 |  |
| C[C@@]12C=C[C@](C)(O1)[C@H]1CCCC[C@H]2C1=O | 39.7 | 11.9 | 14.8 | 32.9 | 12.7 | 82 | 70.7 | 1.4 | 100 | 83.4 | 0.9 | 66.2 | 10.5 | 15.6 |  |
| CC1=C[C@@H]2O[C@]1(C)[C@H]1CCCC[C@H]2C1=O | 16.3 | 7.1 | 49.6 | 47.4 | 10 | 96 | 82.1 | 0.9 | 79 | 82.5 | 0.9 | 62.1 | 11.7 | 65.4 |  |
| CC1=C2CCC(C)C[C@@]23O[C@H]1[C@H](C)C(=O)[C@H]3C (some centres not stated) | 44.2 | 13.1 | 6.2 | 26.3 | 14 | 96 | 72.4 | 1.3 | 96 | 71.4 | 1.5 | 34.4 | 20.3 | 5.9 |  |
